Assay results published in ChEMBL document CHEMBL1201862, “PubChem BioAssay data set” (2004).
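Cultured in 96-well plates, cells were exposed to test compound for 48 hours across five concentrations. GI50 = concentration required for 50% inhibition of growth.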 Active and inactive are the calls of the source. No stated cut-off is given here; in the data, active = GI50 up to about 1.1 µM and inactive = higher.

Columns and labels:
Experiment in all cases: DTP human tumour cell line panel, 48 h
OVCAR-3 = system: OVCAR-3
HCT-116 = system: HCT-116
Malme-3M = system: Malme-3M
LOX IMVI = system: LOX IMVI
EKVX = system: EKVX
COLO 205 = system: COLO 205
UACC-62 = system: UACC-62
MDA-N = system: MDA-N
U-251 = system: U-251
CAKI-1 = system: CAKI-1
A498 = system: A498
MDA-MB-435 = system: MDA-MB-435
RPMI-8226 = system: RPMI-8226
SN12C = system: SN12C
SF-295 = system: SF-295
NCI-H460 = system: NCI-H460
HT-29 = system: HT-29
MOLT-4 = system: MOLT-4
OVCAR-4 = system: OVCAR-4
SF-539 = system: SF-539

Row | Compound | GI50 (OVCAR-3) | GI50 (HCT-116) | GI50 (Malme-3M) | GI50 (LOX IMVI) | GI50 (EKVX) | GI50 (COLO 205) | GI50 (UACC-62) | GI50 (MDA-N) | GI50 (U-251) | GI50 (CAKI-1) | GI50 (A498) | GI50 (MDA-MB-435) | GI50 (RPMI-8226) | GI50 (SN12C) | GI50 (SF-295) | GI50 (NCI-H460) | GI50 (HT-29) | GI50 (MOLT-4) | GI50 (OVCAR-4) | GI50 (SF-539)
1 | OCCSCc1cc(Cl)cc(Cl)c1O | > 100 µM (inactive) | > 100 µM (inactive) | > 100 µM (inactive) | > 100 µM (inactive) | > 100 µM (inactive) | > 100 µM (inactive) | > 100 µM (inactive) | > 100 µM (inactive) | > 100 µM (inactive) | > 100 µM (inactive) | > 100 µM (inactive) | > 100 µM (inactive) | > 100 µM (inactive) | > 100 µM (inactive) | > 100 µM (inactive) | > 100 µM (inactive) | > 100 µM (inactive) | > 100 µM (inactive) | > 100 µM (inactive) | –
2 | O=C(Nc1ccccc1C(=O)Nc1nccs1)c1ccccc1 | 3.98 µM (inactive) | 12.1 µM (inactive) | 10.5 µM (inactive) | 4.83 µM (inactive) | 36.6 µM (inactive) | 4.04 µM (inactive) | 25.2 µM (inactive) | 19.5 µM (inactive) | 6.52 µM (inactive) | 21.3 µM (inactive) | 8.51 µM (inactive) | 33.7 µM (inactive) | 6.65 µM (inactive) | 59 µM (inactive) | 25.8 µM (inactive) | 3.81 µM (inactive) | 4.44 µM (inactive) | 3.44 µM (inactive) | – | 43 µM (inactive)
3 | CC(NC(=O)CNP(=O)(c1ccccc1)c1ccccc1)C(=O)NC(Cc1ccccc1)C(=O)OCc1ccccc1 (stereo not drawn) | 43 µM (inactive) | 34.9 µM (inactive) | 60.8 µM (inactive) | 26.7 µM (inactive) | 24.1 µM (inactive) | > 10 µM (inactive) | 36.3 µM (inactive) | 43.3 µM (inactive) | 23.4 µM (inactive) | > 100 µM (inactive) | > 100 µM (inactive) | 50.2 µM (inactive) | 33 µM (inactive) | 42.7 µM (inactive) | 19 µM (inactive) | – | 92.9 µM (inactive) | 20.5 µM (inactive) | – | 62.2 µM (inactive)
4 | CC(C)(C)N1C(=O)[N-]/[N+](=C(/C(c2ccccc2)=[N+]2/[N-]C(=O)N(C(C)(C)C)C2=O)c2ccccc2)C1=O | > 100 µM (inactive) | > 100 µM (inactive) | – | > 100 µM (inactive) | – | > 100 µM (inactive) | > 100 µM (inactive) | > 100 µM (inactive) | > 100 µM (inactive) | > 100 µM (inactive) | > 100 µM (inactive) | > 100 µM (inactive) | > 100 µM (inactive) | > 100 µM (inactive) | > 100 µM (inactive) | > 100 µM (inactive) | – | > 100 µM (inactive) | > 100 µM (inactive) | > 100 µM (inactive)
5 | CC(=O)[C@@H]1[C@@H](OC(=O)CCC(C)COC2OC(CO)C(O)C(O)C2O)C[C@H]2[C@@H]3CC=C4C[C@@H](OC5OC(CO)C(OC6OC(C)C(O)C(O)C6O)C(O)C5OC5OC(C)C(O)C(O)C5O)CC[C@]4(C)[C@H]3CC[C@]12C (stereo partly drawn) | > 100 µM (inactive) | > 100 µM (inactive) | 52.5 µM (inactive) | > 100 µM (inactive) | > 100 µM (inactive) | > 100 µM (inactive) | > 100 µM (inactive) | > 100 µM (inactive) | > 100 µM (inactive) | > 100 µM (inactive) | > 100 µM (inactive) | > 100 µM (inactive) | > 100 µM (inactive) | > 100 µM (inactive) | > 100 µM (inactive) | > 100 µM (inactive) | – | > 100 µM (inactive) | > 100 µM (inactive) | –
6 | CCOC(=O)c1ccc(/N=C2\Sc3nc4ccccc4n3\C2=N\c2ccc(C(=O)OCC)cc2)cc1 | 12.9 µM (inactive) | 6.58 µM (inactive) | 22.7 µM (inactive) | 14.2 µM (inactive) | 42.6 µM (inactive) | 38.5 µM (inactive) | 16.1 µM (inactive) | 18.5 µM (inactive) | – | 23 µM (inactive) | 34.3 µM (inactive) | 59.2 µM (inactive) | – | 40.6 µM (inactive) | 16.2 µM (inactive) | 22.5 µM (inactive) | 19.6 µM (inactive) | 9.77 µM (inactive) | 24.3 µM (inactive) | 21 µM (inactive)
7 | COc1cccc(C2c3cc4c(cc3OC(NNc3ccccc3)C2C)OCO4)c1OC (stereo not drawn) | 4.4 µM (inactive) | 3.78 µM (inactive) | 12.2 µM (inactive) | 16.5 µM (inactive) | 3.45 µM (inactive) | 3.77 µM (inactive) | 2.78 µM (inactive) | 5.46 µM (inactive) | 6.04 µM (inactive) | 2.5 µM (inactive) | 14.9 µM (inactive) | 3.04 µM (inactive) | 2.92 µM (inactive) | 9.84 µM (inactive) | 0.678 µM (active) | 3.26 µM (inactive) | 12 µM (inactive) | 2.55 µM (inactive) | – | 4.14 µM (inactive)
